“And” between values parts separate entries of the source, which are not always exact repeats. Equal values may be shown once. Read-outs that look alike come from different tables or passages of the source.
What was measured:
cyclin KeGFP = test: Cyclin KeGFP reporter system (eGFP/mCherry MFI by flow cytometry);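 for % degradation cyclin K-eGFP: 10 μM compound for 3 h relative to DMSO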; assay type: cell-based, H. sapiens
Method in brief: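 OCI-AML5 clone G7 carrying lentiviral cyclin KeGFP/mCherry reporter. eGFP and mCherry geometric MFI measured by flow cytometry; eGFP/mCherry ratio normalized to DMSO-treated cells.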

CDK9/CyclinT = biological target: T1, CDK9/CyclinT (Homo sapiens, UniProt P50750); test: CDK9/CyclinT in vitro kinase activity, single concentration 1 μM; assay type: biochemical; settings: single concentration 1 μM
T1 construct: purchased BPS Bioscience 79628
T1 sequence (P50750 whole entry): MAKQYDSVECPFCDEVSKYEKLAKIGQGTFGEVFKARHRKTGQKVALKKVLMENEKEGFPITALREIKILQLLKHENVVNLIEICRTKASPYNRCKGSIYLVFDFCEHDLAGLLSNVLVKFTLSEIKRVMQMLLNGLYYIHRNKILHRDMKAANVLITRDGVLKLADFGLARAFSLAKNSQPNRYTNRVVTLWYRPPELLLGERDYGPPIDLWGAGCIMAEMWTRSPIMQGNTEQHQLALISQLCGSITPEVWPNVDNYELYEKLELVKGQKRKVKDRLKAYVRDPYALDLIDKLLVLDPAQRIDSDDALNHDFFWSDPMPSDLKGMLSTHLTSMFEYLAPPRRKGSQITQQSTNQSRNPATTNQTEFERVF
T1 sequence (O60563 whole entry partner): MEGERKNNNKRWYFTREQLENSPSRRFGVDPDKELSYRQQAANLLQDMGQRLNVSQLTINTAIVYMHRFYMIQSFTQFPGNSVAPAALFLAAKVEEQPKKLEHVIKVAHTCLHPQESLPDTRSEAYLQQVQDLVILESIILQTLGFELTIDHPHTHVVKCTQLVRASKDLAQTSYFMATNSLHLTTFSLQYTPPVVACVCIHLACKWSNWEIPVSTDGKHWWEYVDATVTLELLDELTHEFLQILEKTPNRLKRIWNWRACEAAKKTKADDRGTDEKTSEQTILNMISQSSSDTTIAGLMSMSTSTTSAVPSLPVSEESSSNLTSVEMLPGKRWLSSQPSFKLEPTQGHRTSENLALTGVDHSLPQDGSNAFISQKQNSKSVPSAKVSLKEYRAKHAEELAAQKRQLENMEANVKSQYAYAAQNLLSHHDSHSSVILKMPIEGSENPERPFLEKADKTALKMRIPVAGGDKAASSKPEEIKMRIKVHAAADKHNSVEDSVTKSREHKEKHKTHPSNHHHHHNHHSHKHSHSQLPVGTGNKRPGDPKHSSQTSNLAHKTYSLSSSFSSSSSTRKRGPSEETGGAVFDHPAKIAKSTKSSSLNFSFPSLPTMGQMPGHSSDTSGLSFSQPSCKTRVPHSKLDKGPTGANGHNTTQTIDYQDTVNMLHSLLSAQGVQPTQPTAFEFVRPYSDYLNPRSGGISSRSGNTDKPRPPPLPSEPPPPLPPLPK
Experimental: (§1) Kinase activity was assessed using the kinase assay kits from BPS Bioscience for CDK1, CDK9 and CDK12 with Kinase Glo MAX in duplicates. Compounds were tested at a single concentration of 1 μM for CDK1 and CDK9 activity, and in a dilution ranging from 0.64 nM to 50 μM for CDK12 activity. Chemiluminescence was read using the Neo Synergy BioTek plate reader.

primary AML specimens = test: Dose-response assays in primary AML specimens (6 days, CellTiterGlo); assay type: cell-based, human; settings: 6 days, read-out: IC50
Experimental: Freshly thawed primary AML specimens were used for chemical screens. Cryopreserved cells were thawed at 37 °C in IMDM containing 20% FBS and DNase I (100 μg/mL). Cells were resuspended in IMDM supplemented with 15% BIT (BSA, insulin, transferrin; StemCell Technologies), 100 ng/mL SCF, 50 ng/mL FLT3L, 20 ng/mL IL3, 20 ng/mL G-CSF, 10^−4 mol/L b-mercaptoethanol, gentamicin (50 μg/mL), ciprofloxacin (10 μg/mL), SR1 (500 nmol/L) and UM729 (500 nmol/L). Cells were plated in 384-well white plates, 5000 cells per well in 50 μL. Compounds were dissolved in DMSO, diluted in media immediately before use and added to seeded cells at the unique concentration of 1 μM. Control wells received DMSO (0.1%) only. Cell viability was evaluated after 6 days in culture using the CellTiterGlo assay according to the manufacturer’s instruction. Percentage of inhibition for dose response curves was calculated as 100 – (100 × (mean luminescence [compound]/mean luminescence [DMSO])). Dose response curves were generated using nonlinear regression in GraphPad Prism version.
Dose-response assays in primary AML specimens were performed as in chemical screen (see above) with the exception that compounds were tested in serial dilution (8 dilutions, 1:4, 10 μM down to 0.5 nM). Dose-response assays in OCI-AML5 cell line were conducted similarly with the following modifications: 300 cells per well were seeded in 50 μL of cell line media and cell viability was evaluated after 4 days in culture.

CDK12/Cyclin K = biological target: T2, CDK12/Cyclin K (Homo sapiens, UniProt Q9NYV4); test: CDK12/CyclinK in vitro kinase assay (BPS kit, Kinase Glo MAX); assay type: biochemical; settings: in % (unit assumed)
T2 construct: purchased BPS Bioscience 78298
T2 sequence (Q9NYV4 whole entry): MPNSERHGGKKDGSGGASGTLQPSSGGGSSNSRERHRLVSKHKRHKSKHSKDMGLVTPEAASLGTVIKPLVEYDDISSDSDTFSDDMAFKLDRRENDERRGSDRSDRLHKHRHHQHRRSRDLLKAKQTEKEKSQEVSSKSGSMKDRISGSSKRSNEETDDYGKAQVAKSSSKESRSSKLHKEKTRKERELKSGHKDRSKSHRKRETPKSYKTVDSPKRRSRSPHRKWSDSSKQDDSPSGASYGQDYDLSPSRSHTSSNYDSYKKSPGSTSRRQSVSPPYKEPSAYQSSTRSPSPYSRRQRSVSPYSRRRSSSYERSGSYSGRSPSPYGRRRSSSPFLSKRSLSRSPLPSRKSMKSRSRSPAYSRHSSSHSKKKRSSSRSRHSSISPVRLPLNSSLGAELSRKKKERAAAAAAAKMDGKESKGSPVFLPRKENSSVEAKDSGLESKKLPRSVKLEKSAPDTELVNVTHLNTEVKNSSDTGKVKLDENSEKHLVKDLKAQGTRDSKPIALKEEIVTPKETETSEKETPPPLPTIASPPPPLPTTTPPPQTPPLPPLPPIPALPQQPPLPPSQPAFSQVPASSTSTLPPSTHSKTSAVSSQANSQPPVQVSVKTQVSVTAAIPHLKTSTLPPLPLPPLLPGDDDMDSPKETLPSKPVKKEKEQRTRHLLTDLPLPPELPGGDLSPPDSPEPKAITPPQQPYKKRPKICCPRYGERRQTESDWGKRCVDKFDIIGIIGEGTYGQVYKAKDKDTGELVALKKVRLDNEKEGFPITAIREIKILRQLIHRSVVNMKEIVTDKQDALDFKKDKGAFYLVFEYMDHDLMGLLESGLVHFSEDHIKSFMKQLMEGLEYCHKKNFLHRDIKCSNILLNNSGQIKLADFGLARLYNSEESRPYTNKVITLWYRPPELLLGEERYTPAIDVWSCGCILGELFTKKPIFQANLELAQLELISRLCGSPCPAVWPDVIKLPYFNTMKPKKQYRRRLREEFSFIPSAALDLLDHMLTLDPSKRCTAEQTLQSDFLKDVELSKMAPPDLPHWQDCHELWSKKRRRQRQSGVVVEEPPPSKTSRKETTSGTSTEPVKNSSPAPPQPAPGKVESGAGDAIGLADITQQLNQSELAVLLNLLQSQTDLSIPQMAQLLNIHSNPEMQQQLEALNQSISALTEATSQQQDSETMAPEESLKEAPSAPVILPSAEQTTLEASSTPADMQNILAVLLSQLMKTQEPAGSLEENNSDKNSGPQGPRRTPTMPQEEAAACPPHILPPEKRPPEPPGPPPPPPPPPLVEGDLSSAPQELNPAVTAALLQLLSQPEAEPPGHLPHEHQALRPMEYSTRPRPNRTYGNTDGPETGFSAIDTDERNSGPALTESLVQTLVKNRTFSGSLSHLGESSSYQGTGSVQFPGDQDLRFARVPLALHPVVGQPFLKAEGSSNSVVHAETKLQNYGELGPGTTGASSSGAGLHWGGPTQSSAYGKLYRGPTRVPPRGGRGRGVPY
T2 sequence (O75909 whole entry partner): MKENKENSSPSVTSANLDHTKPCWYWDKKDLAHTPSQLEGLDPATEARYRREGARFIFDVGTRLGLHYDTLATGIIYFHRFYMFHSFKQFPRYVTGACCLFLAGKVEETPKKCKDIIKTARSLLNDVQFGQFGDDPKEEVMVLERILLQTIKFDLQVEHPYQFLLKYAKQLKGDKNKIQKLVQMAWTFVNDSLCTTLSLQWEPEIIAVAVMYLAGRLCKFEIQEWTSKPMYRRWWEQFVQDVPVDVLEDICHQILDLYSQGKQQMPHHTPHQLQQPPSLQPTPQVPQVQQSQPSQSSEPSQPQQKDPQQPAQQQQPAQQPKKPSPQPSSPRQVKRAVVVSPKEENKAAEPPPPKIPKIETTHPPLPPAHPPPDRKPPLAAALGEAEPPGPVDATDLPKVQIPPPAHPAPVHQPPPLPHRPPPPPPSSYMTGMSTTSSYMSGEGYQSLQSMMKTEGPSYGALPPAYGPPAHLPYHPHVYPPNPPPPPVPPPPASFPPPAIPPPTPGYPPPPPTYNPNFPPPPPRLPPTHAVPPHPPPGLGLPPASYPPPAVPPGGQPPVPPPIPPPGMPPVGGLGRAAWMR
Experimental: as §1

[1] = system: OCI-AML5 cells expressing shRNAs targeting CDK1, 2, 4, 7, 9, cyclin K; test: Dose response in OCI-AML5 expressing shRNAs targeting CDK1, 2, 4, 7, 9, cyclin K or control; assay type: cell-based, H. sapiens; settings: for IC50: OCI-AML5, 4 days
OCI-AML5 cells = test: Dose-response proliferative assay in OCI-AML5 (4 days, CellTiterGlo); assay type: cell-based, H. sapiens; settings: OCI-AML5 cells; read-out: IC50 in AML5
Method in brief: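 OCI-AML5 cells in αMEM, 10% heat-inactivated FBS plus 10 ng/mL GM-CSF, 300 cells/well, exposed to 8-point 1:4 serial dilutions (10 μM down to 0.5 nM). Viability read after 4 days in culture at 37 °C, 5% CO2.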

Question: Which results are given for `CC[C@H](CO)Nc1nc(NCc2ccc(-c3ccccn3)cc2)c2ncn(C(C)C)c2n1` [CR8]?
Answer: MFI of cyclin KeGFP over mCherry (cyclin KeGFP; OCI-AML5 G7 clone, 3 h, 10 μM, normalized to DMSO (=100)): 13.6 and 15.4 and 15.2 and 15.3 and 14.9; % degradation cyclin K-eGFP (cyclin KeGFP; cyclin K-eGFP reporter): 86%; % CDK9 inhibition (CDK9/CyclinT): 100%; IC50 (primary AML specimens; primary AML specimen 03H109): 48.5 nM; IC50 (primary AML specimens; primary AML specimen 04H055): 123 nM; IC50 (primary AML specimens; primary AML specimen 04H096): 55 nM; IC50 (primary AML specimens; primary AML specimen 04H138): 127 nM; IC50 (primary AML specimens; primary AML specimen 05H113): 48.9 nM; IC50 (primary AML specimens; primary AML specimen 05H149): 66.3 nM; IC50 (primary AML specimens; primary AML specimen 05H193): 63.3 nM; IC50 (primary AML specimens; primary AML specimen 06H088): 74.7 nM; IC50 (primary AML specimens; primary AML specimen 06H117): 60.2 nM; IC50 (primary AML specimens; primary AML specimen 06H151): 43 nM; IC50 (primary AML specimens; primary AML specimen 07H003): 129 nM; IC50 (primary AML specimens; primary AML specimen 07H131): 154 nM; IC50 (primary AML specimens; primary AML specimen 07H144): 51.9 nM; IC50 (primary AML specimens; primary AML specimen 07H155): 144 nM; IC50 (primary AML specimens; primary AML specimen 08H018): 124 nM; IC50 (primary AML specimens; primary AML specimen 08H021): 53.6 nM; IC50 (primary AML specimens; primary AML specimen 08H056): 136 nM; IC50 (primary AML specimens; primary AML specimen 08H063): 149 nM; IC50 (primary AML specimens; primary AML specimen 08H085): 63.1 nM; IC50 (primary AML specimens; primary AML specimen 08H108): 126 nM; IC50 (primary AML specimens; primary AML specimen 08H118): 50.2 nM; IC50 (primary AML specimens; primary AML specimen 09H016): 51.5 nM; IC50 (primary AML specimens; primary AML specimen 09H070): 140 nM; IC50 (primary AML specimens; primary AML specimen 10H014): 38.9 nM; IC50 (primary AML specimens; primary AML specimen 10H046): 59.9 nM; IC50 (primary AML specimens; primary AML specimen 10H107): 76.8 nM; IC50 (primary AML specimens; primary AML specimen 10H127): 93.5 nM; IC50 (primary AML specimens; primary AML specimen 10H161): 75.2 nM; IC50 (primary AML specimens; primary AML specimen 10H174): 54.8 nM; IC50 (primary AML specimens; primary AML specimen 11H008): 85.8 nM; IC50 (primary AML specimens; primary AML specimen 11H019): 69.4 nM; IC50 (primary AML specimens; primary AML specimen 11H170): 162 nM; IC50 (primary AML specimens; primary AML specimen 11H217): 128 nM; IC50 (primary AML specimens; primary AML specimen 11H232): 70.1 nM; IC50 (primary AML specimens; primary AML specimen 12H033): 107 nM; IC50 (primary AML specimens; primary AML specimen 12H055): 100 nM; IC50 (primary AML specimens; primary AML specimen 12H148): 74.2 nM; IC50 (primary AML specimens; primary AML specimen 13H053): 133 nM; IC50 (primary AML specimens; primary AML specimen 15H045): 43.7 nM; IC50 (primary AML specimens; primary AML specimen 17H065): 92.3 nM; in vitro inhibition of CDK12/Cyclin K activity (CDK12/Cyclin K; Log10 (uM) 1): 58.77 and 64.89 and 109.89; in vitro inhibition of CDK12/Cyclin K activity (CDK12/Cyclin K; Log10 (uM) 1.69897): 81.16 and 77.06 and 130.98; in vitro inhibition of CDK12/Cyclin K activity (CDK12/Cyclin K; Log10 (uM) -0.39794): 16.88 and 18.59 and 15.49; IC50 ([1]; read-out: IC50, sh CDK1): 69.6 nM and 111 nM and 91.9 nM; IC50 ([1]; read-out: IC50, sh CDK2): 67.6 nM and 80.5 nM and 96.4 nM; IC50 ([1]; read-out: IC50, sh CDK4): 61.8 nM and 75.2 nM and 63.5 nM; IC50 ([1]; read-out: IC50, sh CDK7): 61.1 nM and 84.1 nM and 69.1 nM; IC50 ([1]; read-out: IC50, sh CDK9): 55.2 nM and 60.8 nM and 44.9 nM; IC50 ([1]; read-out: IC50, sh Cyclin K): 13.1 nM and 15.5 nM and 20.6 nM; IC50 ([1]; read-out: IC50, sh ctrl): 55.8 nM and 70.4 nM and 56.2 nM; Class ([1]; class from shRNA IC50 profile and cyclin K-eGFP degradation): 1; IC50 (OCI-AML5 cells): 56 nM

Reference: paper PMC12152147, “DDB1 engagement defines the selectivity of S656 analogs for cyclin K degradation over CDK inhibition” (EMBO Reports, 2025)
